US20240316022A1 (TYRA BIOSCIENCES, INC., priority 2021, published 2024)

Assays:
Test in all cases: Kinase binding assay (kinase-tagged T7 phage, qPCR), Kd
FGFR1 = target: T1, FGFR1 (Homo sapiens, UniProt P11362); conditions: read-out: FGFR1 (Kd nM)
T1 construct: made in house; host or cells: E. coli derived from BL21, infected with T7 phage
Procedure: (§1) Kinase-tagged T7 phage strains were prepared in an E. coli host derived from the BL21 strain. E. coli were grown to log-phase and infected with T7 phage and incubated with shaking at 32° C. until lysis. The lysates were centrifuged and filtered to remove cell debris. […] The liganded beads were blocked with excess biotin and washed with blocking buffer SeaBlock (Pierce), 1% BSA, 0.05% Tween 20, 1 mM DTT to remove unbound ligand and to reduce non-specific binding.
(§2) Kds were determined using an 11-point 3-fold compound dilution series with three DMSO control points. […] The compounds were then diluted directly into the assays such that the final concentration of DMSO was 0.9%. All reactions performed in polypropylene 384-well plate. Each was a final volume of 0.02 ml. […] The kinase concentration in the eluates was measured by qPCR.
(§3) Binding constants were calculated with a standard dose-response curve using the Hill equation: […]
(§4) The Hill Slope was set to −1. Curves were fitted using a non-linear least square fit with the Levenberg-Marquardt algorithm.

FGFR2 = target: T2, FGFR2 (Homo sapiens, UniProt P21802); conditions: read-out: FGFR2 (Kd nM)
T2 construct: made in house; host or cells: E. coli derived from BL21, infected with T7 phage
Procedure: as §1, §2, §3, §4

FGFR3 = target: T3, FGFR3 (Homo sapiens, UniProt P22607); conditions: read-out: FGFR3 (Kd nM)
T3 construct: made in house; host or cells: E. coli derived from BL21, infected with T7 phage
Procedure: (§5) Kinase-tagged T7 phage strains were prepared in an E. coli host derived from the BL21 strain. E. coli were grown to log-phase and infected with T7 phage and incubated with shaking at 32° C. until lysis. The lysates were centrifuged and filtered to remove cell debris. Streptavidin-coated magnetic beads were treated with biotinylated small molecule ligands for 30 minutes at room temperature to generate affinity resins for kinase assays. The liganded beads were blocked with excess biotin and washed with blocking buffer SeaBlock (Pierce), 1% BSA, 0.05% Tween 20, 1 mM DTT to remove unbound ligand and to reduce non-specific binding. Binding reactions were assembled by combining kinases, liganded affinity beads, and test compounds in 1× binding buffer (20% SeaBlock, 0.17×PBS, 0.05% Tween 20, 6 mM DTT).
(§6) Test compounds were prepared as 111X stocks in 100% DMSO. Kds were determined using an 11-point 3-fold compound dilution series with three DMSO control points. All compounds for Kd measurements are distributed by acoustic transfer (non-contact dispensing) in 100% DMSO. The compounds were then diluted directly into the assays such that the final concentration of DMSO was 0.9%. All reactions performed in polypropylene 384-well plate. Each was a final volume of 0.02 ml. The assay plates were incubated at room temperature with shaking for 1 hour and the affinity beads were washed with wash buffer (1×PBS, 0.05% Tween 20). The beads were then re-suspended in elution buffer (1×PBS, 0.05% Tween 20, 0.5 μM non-biotinylated affinity ligand) and incubated at room temperature with shaking for 30 minutes. The kinase concentration in the eluates was measured by qPCR.
as §3, §4

FGFR4 = target: T4, FGFR4 (Homo sapiens, UniProt P22455); conditions: read-out: FGFR4 (Kd nM)
T4 construct: made in house; host or cells: E. coli derived from BL21, infected with T7 phage
Procedure: as §5, §6, §3, §4

T3 sequence (P22607 23-806): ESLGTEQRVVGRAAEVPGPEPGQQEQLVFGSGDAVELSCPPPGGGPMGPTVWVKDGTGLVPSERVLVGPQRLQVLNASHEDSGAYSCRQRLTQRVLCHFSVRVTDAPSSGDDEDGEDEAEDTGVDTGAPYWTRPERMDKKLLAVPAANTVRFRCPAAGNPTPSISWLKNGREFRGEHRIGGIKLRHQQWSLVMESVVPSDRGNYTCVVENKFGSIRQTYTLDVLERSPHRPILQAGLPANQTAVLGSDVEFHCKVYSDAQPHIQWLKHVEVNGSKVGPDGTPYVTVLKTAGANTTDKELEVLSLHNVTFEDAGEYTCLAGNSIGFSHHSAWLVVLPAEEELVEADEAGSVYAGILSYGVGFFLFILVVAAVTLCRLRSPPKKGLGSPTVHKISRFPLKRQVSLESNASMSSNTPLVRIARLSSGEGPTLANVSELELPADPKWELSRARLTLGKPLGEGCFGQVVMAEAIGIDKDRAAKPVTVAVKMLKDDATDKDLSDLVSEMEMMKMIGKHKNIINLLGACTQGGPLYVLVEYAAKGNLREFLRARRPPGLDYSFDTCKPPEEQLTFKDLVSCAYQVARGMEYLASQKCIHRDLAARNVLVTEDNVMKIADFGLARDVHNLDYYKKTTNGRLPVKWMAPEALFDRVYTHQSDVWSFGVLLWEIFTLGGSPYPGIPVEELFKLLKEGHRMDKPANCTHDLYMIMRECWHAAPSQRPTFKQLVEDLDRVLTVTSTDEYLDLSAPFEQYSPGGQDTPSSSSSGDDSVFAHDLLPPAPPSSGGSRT
T2 sequence (P21802 22-821): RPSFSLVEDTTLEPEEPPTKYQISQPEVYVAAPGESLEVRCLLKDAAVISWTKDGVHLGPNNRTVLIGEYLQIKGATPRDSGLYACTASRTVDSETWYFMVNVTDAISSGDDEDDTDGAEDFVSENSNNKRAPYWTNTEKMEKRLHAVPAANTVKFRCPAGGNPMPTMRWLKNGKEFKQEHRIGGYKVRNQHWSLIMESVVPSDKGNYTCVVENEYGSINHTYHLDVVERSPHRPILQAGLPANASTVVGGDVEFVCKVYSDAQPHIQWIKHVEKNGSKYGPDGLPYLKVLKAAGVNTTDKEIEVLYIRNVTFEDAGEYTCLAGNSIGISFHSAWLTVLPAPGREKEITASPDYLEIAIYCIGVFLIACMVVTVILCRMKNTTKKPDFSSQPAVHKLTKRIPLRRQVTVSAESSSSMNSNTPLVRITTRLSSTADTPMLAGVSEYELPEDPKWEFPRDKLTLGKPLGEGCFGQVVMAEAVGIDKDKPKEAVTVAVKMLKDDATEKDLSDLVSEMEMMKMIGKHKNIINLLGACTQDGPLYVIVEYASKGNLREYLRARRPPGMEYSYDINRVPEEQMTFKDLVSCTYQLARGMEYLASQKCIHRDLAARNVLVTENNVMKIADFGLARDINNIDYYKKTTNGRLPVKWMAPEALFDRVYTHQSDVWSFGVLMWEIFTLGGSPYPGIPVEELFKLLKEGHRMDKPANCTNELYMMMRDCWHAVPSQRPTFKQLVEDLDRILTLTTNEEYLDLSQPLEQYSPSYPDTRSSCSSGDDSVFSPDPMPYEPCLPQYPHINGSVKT
T4 sequence (P22455 22-802): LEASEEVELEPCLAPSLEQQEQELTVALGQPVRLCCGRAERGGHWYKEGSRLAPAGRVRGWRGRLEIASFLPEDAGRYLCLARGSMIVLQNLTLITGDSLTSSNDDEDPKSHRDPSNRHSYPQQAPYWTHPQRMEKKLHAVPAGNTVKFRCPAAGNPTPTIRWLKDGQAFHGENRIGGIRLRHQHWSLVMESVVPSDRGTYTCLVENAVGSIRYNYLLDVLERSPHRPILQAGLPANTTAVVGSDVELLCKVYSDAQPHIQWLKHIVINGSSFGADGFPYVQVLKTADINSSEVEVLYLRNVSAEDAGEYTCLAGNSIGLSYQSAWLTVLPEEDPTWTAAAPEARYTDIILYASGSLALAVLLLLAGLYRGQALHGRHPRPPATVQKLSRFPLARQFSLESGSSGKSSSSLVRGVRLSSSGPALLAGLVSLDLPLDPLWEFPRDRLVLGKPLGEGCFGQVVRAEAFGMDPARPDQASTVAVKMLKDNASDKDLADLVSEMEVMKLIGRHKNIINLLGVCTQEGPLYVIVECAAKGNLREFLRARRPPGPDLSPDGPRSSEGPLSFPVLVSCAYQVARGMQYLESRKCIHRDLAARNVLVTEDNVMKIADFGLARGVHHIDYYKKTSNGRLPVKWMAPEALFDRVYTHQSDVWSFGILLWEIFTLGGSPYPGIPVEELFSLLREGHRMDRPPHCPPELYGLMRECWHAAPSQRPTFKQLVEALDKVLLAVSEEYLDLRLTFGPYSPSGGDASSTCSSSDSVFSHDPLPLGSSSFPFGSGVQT
T1 sequence (P11362 22-822): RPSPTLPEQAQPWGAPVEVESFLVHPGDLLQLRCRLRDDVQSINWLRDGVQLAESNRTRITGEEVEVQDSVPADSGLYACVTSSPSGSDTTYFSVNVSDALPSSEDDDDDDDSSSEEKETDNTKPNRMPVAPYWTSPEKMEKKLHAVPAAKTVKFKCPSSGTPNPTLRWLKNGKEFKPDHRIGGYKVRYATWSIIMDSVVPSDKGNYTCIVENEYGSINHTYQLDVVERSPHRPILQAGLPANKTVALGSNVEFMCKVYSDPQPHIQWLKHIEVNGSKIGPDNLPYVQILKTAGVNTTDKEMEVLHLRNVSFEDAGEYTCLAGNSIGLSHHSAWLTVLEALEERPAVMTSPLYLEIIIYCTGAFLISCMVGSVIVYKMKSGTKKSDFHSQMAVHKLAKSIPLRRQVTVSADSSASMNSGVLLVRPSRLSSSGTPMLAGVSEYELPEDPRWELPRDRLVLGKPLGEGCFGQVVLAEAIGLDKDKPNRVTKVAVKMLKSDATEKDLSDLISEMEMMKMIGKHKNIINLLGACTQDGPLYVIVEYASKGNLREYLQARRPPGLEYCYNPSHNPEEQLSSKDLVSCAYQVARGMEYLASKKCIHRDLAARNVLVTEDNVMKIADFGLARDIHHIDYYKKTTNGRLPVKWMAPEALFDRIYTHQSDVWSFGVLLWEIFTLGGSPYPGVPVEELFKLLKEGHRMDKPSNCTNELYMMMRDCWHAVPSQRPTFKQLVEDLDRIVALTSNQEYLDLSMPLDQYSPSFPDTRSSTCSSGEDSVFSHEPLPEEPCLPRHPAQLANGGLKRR

Structure (SMILES)	Kd (FGFR1)	Kd (FGFR2)	Kd (FGFR3)	Kd (FGFR4)
COc1ncc(-c2n[nH]c3ccc(O[C@H](C)c4c(Cl)cncc4Cl)cc23)cc1N [Example 1, 5-[5-[(1R)-1-(3,5-dichloro-4-pyridyl)ethoxy]-1H-indazol-3-yl]-2-methoxy-pyridin-3-amine]	100 to 250 nM	100 to 250 nM	0.1 to 100 nM	0.1 to 100 nM
COc1ncc(-c2n[nH]c3ccc(O[C@H](C)c4c(Cl)cncc4Cl)cc23)cc1NC(=O)c1ccccn1 [Example 2, (R)—N-(5-(5-(1-(3,5-Dichloropyridin-4-yl)ethoxy)-1H-indazol-3-yl)-2-methoxypyridin-3-yl)picolinamide]	> 1000 nM	> 1000 nM	> 1000 nM	0.1 to 100 nM
COc1ncc(-c2n[nH]c3ccc(O[C@H](C)c4c(Cl)cncc4Cl)cc23)cc1NC(=O)c1cccc2cccnc12 [Example 3, (R)—N-(5-(5-(1-(3,5-Dichloropyridin-4-yl)ethoxy)-1H-indazol-3-yl)-2-methoxypyridin-3-yl)quinoline-8-carboxamide]	> 1000 nM	> 1000 nM	> 1000 nM	250 to 1000 nM
COc1ncc(-c2n[nH]c3ccc(O[C@H](C)c4c(Cl)cncc4Cl)cc23)cc1NCc1ccccn1 [Example 4, (R)-5-(5-(1-(3,5-Dichloropyridin-4-yl)ethoxy)-1H-indazol-3-yl)-2-methoxy-N-(pyridin-2-ylmethyl)pyridin-3-amine]	> 1000 nM	> 1000 nM	250 to 1000 nM	250 to 1000 nM
COc1ncc(-c2n[nH]c3ccc(O[C@H](C)c4c(Cl)cncc4Cl)cc23)cc1NC(=O)N1CCOCC1 [Example 5, (R)—N-(5-(5-(1-(3,5-Dichloropyridin-4-yl)ethoxy)-1H-indazol-3-yl)-2-methoxypyridin-3-yl)morpholine-4-carboxamide]	> 1000 nM	100 to 250 nM	250 to 1000 nM	0.1 to 100 nM
COc1ncc(-c2n[nH]c3ccc(O[C@H](C)c4c(Cl)cncc4Cl)cc23)cc1NCc1ccnc(C)c1 [Example 6, (R)-5-(5-(1-(3,5-Dichloropyridin-4-yl)ethoxy)-1H-indazol-3-yl)-2-methoxy-N-((2-methylpyridin-4-yl)methyl)pyridin-3-amine]	> 1000 nM	> 1000 nM	> 1000 nM	250 to 1000 nM
COc1ncc(-c2n[nH]c3ccc(O[C@H](C)c4c(Cl)cncc4Cl)cc23)cc1NC(=O)N1CCN(C)CC1 [Example 7, (R)—N-(5-(5-(1-(3,5-Dichloropyridin-4-yl)ethoxy)-1H-indazol-3-yl)-2-methoxypyridin-3-yl)-4-methylpiperazine-1-carboxamide]	> 1000 nM	> 1000 nM	100 to 250 nM	0.1 to 100 nM
C[C@@H](Oc1ccc2[nH]nc(-c3ccc(S(C)(=O)=O)nc3)c2c1)c1c(Cl)cncc1Cl [Example 10, (R)-5-(1-(3,5-Dichloropyridin-4-yl)ethoxy)-3-(6-(methylsulfonyl)pyridin-3-yl)-1H-indazole]	0.1 to 100 nM	0.1 to 100 nM	0.1 to 100 nM	0.1 to 100 nM
C[C@@H](Oc1ccc2[nH]nc(-c3ccc(NC(=O)C4CC4)nc3)c2c1)c1c(Cl)cncc1Cl [Example 11, (R)—N-(5-(5-(1-(3,5-Dichloropyridin-4-yl)ethoxy)-1H-indazol-3-yl)pyridin-2-yl)cyclopropanecarboxamide]	0.1 to 100 nM	100 to 250 nM	0.1 to 100 nM	0.1 to 100 nM
C[C@@H](Oc1ccc2[nH]nc(-c3ccc(C(N)=O)nc3)c2c1)c1c(Cl)cncc1Cl [Example 12, 5-[5-[(1R)-1-(3,5-dichloro-4-pyridyl)ethoxy]-1H-indazol-3-yl]pyridine-2-carboxamide]	0.1 to 100 nM	0.1 to 100 nM	0.1 to 100 nM	0.1 to 100 nM
C[C@@H](Oc1ccc2[nH]nc(-c3ccc(NC(=O)N(C)C)nc3)c2c1)c1c(Cl)cncc1Cl [Example 14, 3-[5-[5-[(1R)-1-(3,5-dichloro-4-pyridyl)ethoxy]-1H-indazol-3-yl]-2-pyridyl]-1,1-dimethyl-urea]	0.1 to 100 nM	0.1 to 100 nM	0.1 to 100 nM	0.1 to 100 nM
COc1ncc(-c2n[nH]c3ccc(O[C@H](C)c4c(Cl)cncc4Cl)cc23)cc1NC(=O)CN(C)C [Example 15, N-[5-[5-[(1R)-1-(3,5-dichloro-4-pyridyl)ethoxy]-1H-indazol-3-yl]-2-methoxy-3-pyridyl]-2-(dimethylamino)acetamide]	> 1000 nM	> 1000 nM	100 to 250 nM	0.1 to 100 nM
C[C@@H](Oc1ccc2[nH]nc(-c3cnc4c(c3)N(C(=O)N3CCOCC3)CCO4)c2c1)c1c(Cl)cncc1Cl [Example 18, [7-[5-[(1R)-1-(3,5-dichloro-4-pyridyl)ethoxy]-1H-indazol-3-yl]-2,3-dihydropyrido[2,3-b][1,4]oxazin-1-yl]-morpholino-methanone]	250 to 1000 nM	250 to 1000 nM	100 to 250 nM	0.1 to 100 nM
C[C@@H](Oc1ccc2[nH]nc(-c3ccc(NC(=O)N4CCN(C)CC4)nc3)c2c1)c1c(Cl)cncc1Cl [Example 19, N-[5-[5-[(1R)-1-(3,5-dichloro-4-pyridyl)ethoxy]-1H-indazol-3-yl]-2-pyridyl]-4-methyl-piperazine-1-carboxamide]	0.1 to 100 nM	0.1 to 100 nM	0.1 to 100 nM	0.1 to 100 nM
C[C@@H](Oc1ccc2[nH]nc(-c3cnc4c(c3)N(C(=O)CN(C)C)CCO4)c2c1)c1c(Cl)cncc1Cl [Example 21, 1-[7-[5-[(1R)-1-(3,5-dichloro-4-pyridyl)ethoxy]-1H-indazol-3-yl]-2,3-dihydropyrido[2,3-b][1,4]oxazin-1-yl]-2-(dimethylamino)ethanone]	> 1000 nM	> 1000 nM	250 to 1000 nM	0.1 to 100 nM
C[C@@H](Oc1ccc2[nH]nc(-c3cnc(NC(=O)CN(C)C)c(F)c3)c2c1)c1c(Cl)cncc1Cl [Example 22, N-[5-[5-[(1R)-1-(3,5-dichloro-4-pyridyl)ethoxy]-1H-indazol-3-yl]-3-fluoro-2-pyridyl]-2-(dimethylamino)acetamide]	0.1 to 100 nM	0.1 to 100 nM	0.1 to 100 nM	0.1 to 100 nM
Cc1cc(C(=O)N2CCOc3ncc(-c4n[nH]c5ccc(O[C@H](C)c6c(Cl)cncc6Cl)cc45)cc32)ccn1 [Example 23, [7-[5-[(1R)-1-(3,5-dichloro-4-pyridyl)ethoxy]-1H-indazol-3-yl]-2,3-dihydro-pyrido[2,3-b][1,4]oxazin-1-yl]-(2-methyl-4-pyridyl)methanone]	> 1000 nM	> 1000 nM	250 to 1000 nM	0.1 to 100 nM
C[C@@H](Oc1ccc2[nH]nc(-c3ccc(NC(=O)N4CCC(O)C4)nc3)c2c1)c1c(Cl)cncc1Cl (stereo partly drawn) [Example 24, N-[5-[5-[(1R)-1-(3,5-dichloro-4-pyridyl)ethoxy]-1H-indazol-3-yl]-2-pyridyl]-3-hydroxy-pyrrolidine-1-carboxamide]	0.1 to 100 nM	0.1 to 100 nM	0.1 to 100 nM	0.1 to 100 nM
COc1cc(C#N)cc(-c2n[nH]c3cc(OC)c(O[C@H](C)c4c(C)cnnc4C)cc23)c1 [Example 101, (R)-3-(5-(1-(3,5-dimethylpyridazin-4-yl)ethoxy)-6-methoxy-1H-indazol-3-yl)-5-methoxybenzonitrile]	0.1 to 100 nM	0.1 to 100 nM	0.1 to 100 nM	
